# Source: patent US8513271B2, “Pyrimidine compounds as delta opioid receptor modulators” (Janssen Pharmaceutica, NV, priority 2009, dated 2013)
# Like-named read-outs stand apart in the source and are kept apart here.
# Target: T1, delta opioid receptor (Mus musculus, UniProt P32300)
# T1 construct: NG108-15 cell membranes were purchased from Applied Cell Sciences (Rockville, Md.); host or cells: NG108-15 cell membranes
# Assay: [35S]GTPγS binding assay in NG108-15 cell membranes (delta opioid functional assay), 200 nM screen
# Assay type: biochemical
# Details: NG108-15 cell membranes; for EC50 / GTPγS δ-RelEfficacy @200 nM: averages if tested more than once; for GTPγS δ-opioid receptor Rel Efficacy: relative efficacy from dose response; for GTPγS δ-RelEfficacy @200 nM: 200 nM test compound, relative to calculated max of SNC80 dose response curve
# [1] = GTPγS δ-opioid receptor EC50 (μM)
# [2] = read-out: GTPγS δ-opioid receptor EC50
# T1 sequence (P32300 whole entry): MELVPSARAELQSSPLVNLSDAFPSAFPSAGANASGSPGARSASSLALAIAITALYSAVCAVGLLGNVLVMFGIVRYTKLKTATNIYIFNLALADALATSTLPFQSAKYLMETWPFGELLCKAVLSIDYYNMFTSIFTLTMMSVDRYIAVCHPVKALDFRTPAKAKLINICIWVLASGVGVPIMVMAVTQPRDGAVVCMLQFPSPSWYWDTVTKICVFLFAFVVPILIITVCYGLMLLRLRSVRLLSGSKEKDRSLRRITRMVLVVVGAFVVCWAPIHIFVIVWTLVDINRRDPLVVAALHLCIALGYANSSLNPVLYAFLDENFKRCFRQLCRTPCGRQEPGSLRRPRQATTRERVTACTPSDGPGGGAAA
SMILES,EC50 [1] [µM],GTPγS δ-opioid receptor Rel Efficacy,EC50 [2] [µM],GTPγS δ-RelEfficacy @200 nM
"COc1ccc(Oc2nc(-c3cncc(OC)c3)ncc2N[C@H]2CCC[C@@H](N)C2)cc1 [Cpd 312, N-[4-(4-Methoxy-phenoxy)-2-(5-methoxy-pyridin-3-yl)-pyrimidin-5-yl]-cyclohexane-(1R,3S)-1,3-diamine]",0.00435,1.007,,
COc1ccc(Oc2nc(-c3cncc(C)c3)ncc2NC2CCCC(N)C2)cc1 (centres unmarked) [Cpd 315],0.042,1.019,,
COc1ccc(Oc2nc(-c3cncc(SC)c3)ncc2N[C@H]2CCC[C@@H](N)C2)cc1 [Cpd 316],0.00338,0.977,,
COc1ccc(Oc2nc(-c3cncc(SC)c3)ncc2N[C@@H]2CCC[C@H](N)C2)cc1 [Cpd 317],> 1,,,
c1cncc(-c2ncc(N3CCNCC3)c(Oc3ccc(C4CC4)cc3)n2)c1 [Cpd 320],,0.918,0.191,
COc1ccc(Oc2nc(-c3cccnc3)ncc2N[C@H]2CCC[C@@H](N)C2)cc1 [Cpd 321],0.005,1.022,,
COc1ccc(Oc2nc(-c3cccnc3)ncc2N[C@@H]2CCC[C@H](N)C2)cc1 [Cpd 322],0.196,0.960,,
COc1ccc(Oc2nc(-c3ccccc3)ncc2N2CCNCC2)cc1 [Cpd 324],,1.045,0.428,0.519
COc1ccc(Oc2nc(-c3cncc(C#N)c3)ncc2N2CCNCC2)cc1 [Cpd 325],0.011,1.042,,0.866
COc1ccc(Oc2nc(-c3cncc(C#N)c3)ncc2N2CC[C@@H](N)C2)cc1 [Cpd 326],0.032,1.104,,0.744
COc1ccc(Oc2nc(-c3cncc(C#N)c3)ncc2N2CC[C@H](N)C2)cc1 [Cpd 328],,,,0.377
COc1ccc(Oc2nc(-c3cncc(C#N)c3)ncc2N2CCC[C@H](N)C2)cc1 [Cpd 329],,1.006,0.138,0.475
COc1ccc(Oc2nc(-c3cncc(C#N)c3)ncc2N2CCC[C@@H](N)C2)cc1 [Cpd 330],,0.894,0.051,0.547
COc1ccc(Oc2nc(-c3cncc(C#N)c3)ncc2N2CC(CN)C2)cc1 [Cpd 331],,0.928,0.108,0.764
COc1ccc(Oc2nc(-c3cncc(C#N)c3)ncc2N2CCC[C@@H]2CN)cc1 [Cpd 332],,,,0.393
COc1ccc(Oc2nc(-c3cncc(C#N)c3)ncc2N2CCC(N)CC2)cc1 [Cpd 333],,1.116,0.118,0.664

SMILES,EC50 [1] [µM],GTPγS δ-opioid receptor Rel Efficacy,EC50 [2] [µM],GTPγS δ-RelEfficacy @200 nM
COc1ccc(Oc2nc(-c3cncc(C#N)c3)ncc2N2CCC[C@@H]2CN)cc1 [Cpd 334],,,,0.423
COc1ccc(Oc2nc(-c3cncc(C#N)c3)ncc2N2CCNC(=O)C2)cc1 [Cpd 335],,,,0.050
COc1ccc(Oc2nc(-c3cncc(C#N)c3)ncc2N2CC3CC(C2)N3)cc1 [Cpd 338],,0.956,0.197,0.723
COc1ccc(Oc2nc(-c3cccnc3)ncc2N2CC[C@@H](N)C2)cc1 [Cpd 339],,,,0.641
COc1ccc(Oc2nc(-c3cncc(OC)c3)ncc2N2CCNCC2)cc1 [Cpd 342],0.0439,1.020,,
COc1ccc(Oc2nc(-c3cncc(C#N)c3)ncc2N2CCNC[C@H]2C)cc1 [Cpd 344],0.047,1.089,,0.808
COc1ccc(Oc2nc(-c3cncc(SC)c3)ncc2N2CC[C@@H](N)C2)cc1 [Cpd 348],,0.689,0.101,
COc1ccc(Oc2nc(-c3cncc(SC)c3)ncc2N2CCNC(C)(C)C2)cc1 [Cpd 350],0.083,1.079,,
COc1ccc(Oc2nc(-c3cncc(C)c3)ncc2N2CC[C@@H](N)C2)cc1 [Cpd 352],0.079,0.967,,
"COc1ccc(Oc2nc(-c3cccnc3)ncc2N2CCN(C)CC2)cc1 [Cpd 353, 4-(4-Methoxy-phenoxy)-5-(4-methyl-piperazin-1-yl)-2-pyridin-3-yl-pyrimidine]",,0.651,0.27,
COc1ccc(Oc2nc(-c3cccnc3)ncc2N2CCN[C@@H](C)C2)cc1 [Cpd 356],,1.030,0.031,
COc1ccc(Oc2nc(-c3cncc(C)c3)ncc2N2CCCNCC2)cc1 [Cpd 358],,0.978,0.0242,
COc1ccc(Oc2nc(-c3cccnc3)ncc2N2C[C@@H](C)N[C@@H](C)C2)cc1 [Cpd 359],0.034,0.709,,
CC[C@H]1CNCCN1c1cnc(-c2cncc(OC)c2)nc1Oc1ccc(OC)cc1 [Cpd 360],0.013,1.015,,
CC[C@@H]1CN(c2cnc(-c3cncc(OC)c3)nc2Oc2ccc(OC)cc2)CCN1 [Cpd 361],0.07,0.962,,
